Legend:
Assay type in all cases: in vivo, human
[1] = Phase 1 studies: safety and tolerability; conditions: multiple ascending dose study, vs placebo, any dose
Experimental: In all studies, safety profile was assessed by monitoring treatment-emergent adverse events (TEAEs) through 10 days after last dose of study medication, including serious adverse events [SAEs]), ECG monitoring, laboratory values, and physical examinations.

[2] = Phase 1 Study 1 Part 2: PK with and without a high-fat meal; conditions: 5 mg single oral dose
Text: (§1) Study 1 was a 2-part single-center trial in healthy adult male volunteers.
Part 1 of the study enrolled and randomized 55 healthy men (placebo, n=14; 2-, 5-, 15, 25-, 50, and 100-mg doses, n=6 each; 150-mg dose, n=5). Eight healthy men participated in Part 2.
After a 7-day washout period, participants were crossed over to the other condition.

[3] = Phase 1 Study 1 Part 1: ascending single-dose pharmacokinetics in healthy volunteers
Text: Compound 2 is also known as venglustat.
as §1
Part 1 of the study enrolled and randomized 55 healthy men (placebo, n=14; 2-, 5-, 15, 25-, 50, and 100-mg doses, n=6 each; 150-mg dose, n=5). Eight healthy men participated in Part 2. […]

[4] = tested on: plasma GL-1, GL-3, and GM3 concentrations; assay: Phase 1 Study 2: pharmacodynamic endpoints (plasma GL-1, GL-3, GM3)
Experimental: The study enrolled and randomized 36 healthy adults (19 men and 17 women) (n=9 each to group).
Pharmacodynamic endpoints (plasma GL-1, GL-3, and GM3 concentrations) were assessed on Days 1-5, 8, 11, 13, and 14, at 0 hours […]; and on Day 15, at 24 hours after the Day 14 dose.

[5] = across the 3 dose groups (5, 10, 20 mg once daily)

effect of high-fat meal on exposure compared with fasting [2]: no effect | CL/F, Geometric mean ([3]; single oral dose 2 mg): 6.3 L/h | CL/F, Mean ([3]; single oral dose 2 mg): 6.43 L/h | CL/F, Geometric mean ([3]; single oral dose 5 mg): 5.8 L/h | CL/F, Mean ([3]; single oral dose 5 mg): 5.86 L/h | CL/F, Geometric mean ([3]; single oral dose 15 mg): 5.6 L/h | CL/F, Mean ([3]; single oral dose 15 mg): 5.85 L/h | CL/F, Geometric mean ([3]; single oral dose 25 mg): 5.0 L/h | CL/F, Mean ([3]; single oral dose 25 mg): 5.18 L/h | CL/F, Geometric mean ([3]; single oral dose 50 mg): 5.5 L/h | CL/F, Mean ([3]; single oral dose 50 mg): 5.75 L/h | CL/F, Geometric mean ([3]; single oral dose 100 mg): 5.3 L/h | CL/F, Mean ([3]; single oral dose 100 mg): 5.38 L/h | CL/F, Geometric mean ([3]; single oral dose 150 mg): 5.6 L/h | CL/F, Mean ([3]; single oral dose 150 mg): 5.80 L/h | median time of maximal plasma concentration (Cmax) ([3]; single oral doses of 2 to 150 mg): 3 to 5.5 h
Structure (SMILES): CC(C)(NC(=O)O[C@@H]1CN2CCC1CC2)c1csc(-c2ccc(F)cc2)n1 [Compound 2, (S)-quinuclidin-3-yl 2-(2-(4-fluorophenyl)thiazol-4-yl)propan-2-ylcarbamate]
ECG parameters [1]: no ECG parameters changed statistically significantly | Mean estimated plasma GL-1 reductions from baseline attributable to Ctrough ([4]; 5 mg group, Ctrough 19.0 ng/mL): 67.0% | Mean estimated plasma GL-1 reductions from baseline attributable to Ctrough ([4]; 10 mg group, Ctrough 47.5 ng/mL): 74.4% | Mean estimated plasma GL-1 reductions from baseline attributable to Ctrough ([4]; 20 mg group, Ctrough 69.9 ng/mL): 76.3% | subjects with GL-1 below LLOQ ([4]; Day 15, 5 mg group (n=9)): 3 subjects | subjects with GL-3 below LLOQ ([4]; Day 15, 5 mg group (n=9)): 9 subjects | Mean calculated GL-1 reductions from baseline ([4]; Day 15, 5 mg once daily): 41.9% | subjects with GL-1 below LLOQ ([4]; Day 15, 10 mg group (n=9)): 5 subjects | subjects with GL-3 below LLOQ ([4]; Day 15, 10 mg group (n=9)): 7 subjects | subjects with GM3 below LLOQ ([4]; Day 15, 10 mg group (n=9)): 1 subjects | Mean calculated GL-1 reductions from baseline ([4]; Day 15, 10 mg once daily): 69.6% | subjects with GL-1 below LLOQ ([4]; Day 15, 20 mg group (n=9)): 9 subjects | subjects with GL-3 below LLOQ ([4]; Day 15, 20 mg group (n=9)): 9 subjects | subjects with GM3 below LLOQ ([4]; Day 15, 20 mg group (n=9)): 2 subjects | Mean calculated GL-1 reductions from baseline ([4]; Day 15, 20 mg once daily): 74.6% | plasma GL-1 levels vs baseline [4, 5]: decreased from baseline time- and dose-dependently | plasma GM3 levels vs baseline [4, 5]: decreased from baseline time- and dose-dependently | Day on which maximal sustained GM3 decreases started ([4]; all dose groups): 13 days
